Experimental data taken from ChEMBL document CHEMBL6127093, “The evolution of small-molecule Akt inhibitors from hit to clinical candidate” (Eur J Med Chem, 2024).
pIC50: −log10 of the molar value. ≈ marks a conversion by molar mass, not a printed value.

Key:
[1] = test system: KOSC-2; assay: Antiproliferative activity against human KOSC-2 cells assessed as reduction in cell viability incubated for 24 hrs by MTT assay; format: functional, cell-based; settings: KOSC-2, 24 h
[2] = Antiproliferative activity against human 95-D cells assessed as reduction in cell viability incubated for 24 hrs by MTT assay; format: functional, cell-based
[3] = Antiproliferative activity against human KHOS-240S cells assessed as reduction in cell viability incubated for 24 hrs by MTT assay; format: functional, cell-based
[4] = Volume of distribution at steady state in rat at 1 mg/kg, iv; format: ADME, organism-based; settings: in vivo, read-out: Vdss
[5] = Volume of distribution at steady state in mouse at 5 mg/kg, iv; format: ADME, organism-based; settings: in vivo, read-out: Vdss
[6] = Metabolic stability in mouse hepatocyte assessed as intrinsic clearance; format: ADME, cell-based; settings: hepatocytes
[7] = Metabolic stability in rat hepatocyte assessed as intrinsic clearance; format: ADME, cell-based; settings: hepatocytes
[8] = Volume of distribution at steady state in dog at 1 mg/kg, iv; format: ADME, organism-based, Canis lupus familiaris; settings: in vivo, read-out: Vdss
[9] = Clearance in Beagle dog at 0.5 mg/kg, iv; format: ADME, organism-based, Canis lupus familiaris; settings: in vivo
[10] = in vivo; settings: mouse
[11] = in vivo; settings: rat
[12] = Microsomal stability in human liver microsomes assessed as half life; format: ADME, Microsome
[13] = Oral bioavailability in CD-1 mouse at 5 mg/kg measured for 24 hrs by LC-MS/MS analysis; format: ADME, organism-based; settings: in vivo
[14] = Half life in Sprague-Dawley rat at 2 mg/kg, iv by LC-MS/MS analysis; format: ADME, organism-based; settings: in vivo
[15] = Aqueous solubility of compound at pH 7.4; format: physicochemical; settings: buffer
[16] = test system: PC-3; assay: Antitumor activity against human PC-3 cells xenografted in mouse assessed as inhibition of tumor growth at 50 mg/kg, po administered for 15 days relative to control; format: functional; settings: PC-3, 360 h, time 15 day, read-out: TGI
[17] = test system: PC-3; assay: Antitumor activity against human PC-3 cells xenografted in CD-1 mouse assessed as tumor growth inhibition at 100 mg/kg, po bid administration relative to control; format: functional; settings: read-out: TGI

With `Cn1nccc1-c1ccc(C(=O)N[C@@H]2CNCC[C@H]2c2ccc(F)c(F)c2)c(F)c1` the pIC50 [1] was 5.13, the pIC50 [2] was 5.99 and the pIC50 [3] was 5.13.
In the case of `NC1(C(=O)NCc2ccc(Cl)cc2)CCN(c2ncnc3[nH]ccc23)CC1`, the Vd [4] was 3.1 L/kg, the Vd [5] was 2.8 L/kg and the CLH [6] was 10 µL/min. It also gave a CLH [7] of 19 µL/min, a Vd [8] of 2 L/kg and a clearance [9] of 2 mL/min/kg.
For `NC1(C(=O)N[C@@H](CCO)c2ccc(Cl)cc2)CCN(c2ncnc3[nH]ccc23)CC1` [CAPIVASERTIB], the pIC50 [1] was 4.39, the clearance [10] was 86 mL/min/kg and the clearance [11] was 37 mL/min/kg. For the same compound, the pIC50 [2] was 5.63 and the pIC50 [3] was 4.39.
With `Nc1ncccc1-c1nc2ccc(-c3ccccc3)nc2n1-c1ccc(C2(N)CCC2)cc1` [MIRANSERTIB] the half-life [12] was 0.917 h.
`NC(=O)c1cccc2c(N[C@H](CN3CCC3)c3ccc(Cl)c(C(F)(F)F)c3)ncnc12` [RUPITASERTIB] gave a bioavailability [13] of 10%, a half-life [14] of 3.9 h and a solubility [15] of 17 µg/mL (≈ 37.8 µM).
`Cc1c(NCCN2CCCC2)cc(C(=O)CCC(F)(F)F)cc1N1CCN(c2ncnc3[nH]nc(Br)c23)CC1` [XL-418] gave an inhibition in vivo at 50 mg/kg [16] of 52% and an inhibition in vivo at 100 mg/kg [17] of 90%.
